Data from patent publication US4105659A, “1,2,3,4,5,6-Hexahydro-2,6-methano-3-benzazocines” (Sterling Drug Inc., priority 1964, dated 1978).
Where a name gives a salt, the structure may show the parent alone. Read-outs that look alike come from different tables or passages of the source.

Legend:
[1] = test system: analgesic effect of meperidine hydrochloride; assay: Antagonism of meperidine analgesia, modified D'Amour-Smith test; settings: for ED50: Rattus norvegicus, read-out: dosage of antagonist which reduced the analgesic effect of meperidine by approximately 50 per cent; for dosage of antagonist which reduced the analgesic effect of meperidine by approximately 50 per cent: subcutaneous, rats, lactic acid acid-addition salt, versus 60 mg./kg. meperidine hydrochloride
[2] = test system: analgesic effect of morphine sulfate; assay: Antagonism of morphine analgesia, modified D'Amour-Smith test; settings: for dosage of antagonist which reduced the analgesic effect of morphine by approximately 50 per cent: subcutaneous, rats, lactic acid acid-addition salt, versus 15 mg./kg. morphine sulfate; for ED50: Rattus norvegicus, sc, read-out: dosage of antagonist which reduced the analgesic effect of morphine by approximately 50 per cent
[3] = Solubility, pH of solution and precipitation on pH adjustment or dilution; assay type: physicochemical; settings: for pH at which a precipitate formed: 1 percent solution, addition of N/10 sodium hydroxide
Procedure: A. A mixture of 8.7 g. of racemic cis 1,2,3,4,5,6-hexahydro-6,11-dimethyl-8-hydroxy-2,6-methano-3-benzazocine (which is also known as racemic cis 2'-hydroxy-5,9-dimethyl-6,7-benzomorphan), 6.0 g of 1-bromo-3-methyl-2-butene, 5.0 g. of sodium bicarbonate, and 125 ml. of N,N-dimethylformamide was stirred and refluxed for approximately 41/2 hours. The reaction mixture was then filtered, and the solid on the filter was washed with ethanol. The filtrate and the wash liquor were combined, concentrated under reduced pressure, and then extracted with chloroform. The chloroform extract was concentrated under reduced pressure to yield a syrup which weighed 15.8 g. This syrup was dissolved in 120 ml. of diethyl ether and the resulting solution was filtered to remove approximately one-half gram of a brown amorphous solid. The filtrate was extracted with a mixture of 5 ml. of concentrated hydrochloric acid and 20 ml. of water. To the extract there was added 5 ml. of concentrated ammonium hydroxide solution and ice. A pale tan syrup separated from solution and after stirring, this syrup solidified. The resulting pale tan solid was collected and dried; it weighed 10.6 g. After two recrystallizations from a mixture of methyl alcohol and water, with charcoaling, this solid weighed 8.2 g. and melted at 145°-147° C. The product thus obtained was racemic cis 1,2,3,4,5,6-hexahydro-3-(3-methyl-2-butenyl)-6,11-dimethyl-8-hydroxy-2,6-methano-3-benzazocine (Formula II: Y = --CH2 --CH=C(CH3)2; R^3 = --H), having the molecular formula C19 H27 NO. This product was soluble in a mixture of 0.35 ml. of N/2 hydrochloric acid and 0.15 ml. of water to the extent of 10 percent, the pH of the 1 percent solution being 2.80; and when the pH of the 1 percent solution was gradually raised by addition of N/10 sodium hydroxide solution, a precipitate formed at pH 5.4. When the base was converted to the hydrochloride and was then regenerated from this salt it melted at 151°-153° C. The hydrochloride of this base melted at 245°-247° C. (dec.). and the cyclohexylsulfamate of this base melted at 163°-166° C. The base formed a grayish-yellowtannate.
The racemic trans product was converted to its hydrobromide, having the molecular formula C19 H27 NO·HBr, which was obtained as white needles which melted at 240°-241° C.
The dextro trans product was converted to its hydrochloride, having the molecular formula C19 H27 NO·HCl, which was obtained as white crystals which melted at 254°-255° C.
The levo trans product was converted to its hydrochloride, having the molecular formula C19 H27 NO·HCl, which was obtained as white crystals which melted at 254°-255° C. (dec.); this hydrochloride was soluble in water to the extent of 5 percent, the pH of a 1 percent aqueous solution being 5.7, a precipitate being formed when the 1 percent aqueous solution was adjusted to 7.0 by addition of N/10 sodium hydroxide solution.
A. A mixture of 9.25 g. of racemic cis 1,2,3,4,5,6-hexahydro-6-ethyl-11-methyl-8-hydroxy-2,6-methano-3-benzazocine, 6.0 g. of 1-bromo-3-methyl-2-butene, 125 ml. of N,N-dimethylformamide, and 5.0 g. of sodium bicarbonate was stirred and refluxed for approximately 41/2 hours. The reaction mixture was then filtered, and the solid collected on the filter was washed with ethanol. The filtrate and the wash liquor were combined and concentrated under reduced pressure. To the resulting residue there was added 50 ml. of diethyl ether, and the mixture was filtered. Approximately 0.6 g. of solid was collected on the filter, and 8.2 g. of brown solid separated from the filtrate and was collected by filtration. These two crops of solid (8.8 g.) were combined, 25 ml. of methanol was added, and the mixture was boiled. Only a small portion of the solid dissolved. This mixture was mixed with 25 ml. of water and chilled. The mixture was filtered to collect 8.3 g. of pale tan solid which melted at 156°-158° C. […]

[4] = Clinical analgesia in human subjects; assay type: in vivo; settings: for dose approximately equivalent to 10 mg. of morphine sulfate as an analgesic: parenterally in humans; for analgesia in human subjects: parenterally
Procedure: In human subjects, however, the compounds of Formulas I and II are valuable and effective agents for producing analgesia when administered in the general range of about 10 to 500 mg. per 70 kg. of subject weight, the dosage depending of course on the particular compound, the mode of administration, and the like. The following clinical results which were obtained in human subjects are illustrative. For oral administration the free base was used, and for parenteral (usually intramuscular) administration an aqueous solution of the lactate salt was used; the dosages are expressed in each instance in terms of milligrams of base per 70 kilograms of body weight of the human subject.

[5] = ethanol, organic solvent or mixture, read-out: solubility in ethanol
[6] = water, read-out: solubility in water

Compound: CC(C)=CCN1CC[C@@]2(C)c3cc(O)ccc3C[C@@H]1[C@@H]2C (relative stereo) [4A (cyclohexylsulfamate), racemic cis 1,2,3,4,5,6-hexahydro-3-(3-methyl-2-butenyl)-6,11-dimethyl-8-hydroxy-2,6-methano-3-benzazocine]
- ED50 ([1]; po): 125 mg/kg

Compound: CC(C)=CCN1CC[C@]2(C)c3cc(O)ccc3C[C@H]1C2C (relative stereo) [4D (dextro), cis 1,2,3,4,5,6-hexahydro-3-(3-methyl-2-butenyl)-6,11-dimethyl-8-hydroxy-2,6-methano-3-benzazocine]
- dosage of antagonist which reduced the analgesic effect of morphine by approximately 50 per cent [2]: 21.0 mg/kg
- dosage of antagonist which reduced the analgesic effect of meperidine by approximately 50 per cent [1]: 18.0 mg/kg

Compound: CC(C)=CCN1CC[C@]2(C)c3cc(O)ccc3C[C@H]1C2C (relative stereo) [4D (levo), cis 1,2,3,4,5,6-hexahydro-3-(3-methyl-2-butenyl)-6,11-dimethyl-8-hydroxy-2,6-methano-3-benzazocine]
- dosage of antagonist which reduced the analgesic effect of morphine by approximately 50 per cent [2]: 4.3 mg/kg
- dosage of antagonist which reduced the analgesic effect of meperidine by approximately 50 per cent [1]: 1.05 mg/kg

Compound: CC(C)=CCN1CC[C@@]2(C)c3cc(O)ccc3C[C@H]1C2C (relative stereo) [4E (dextro) hydrochloride, trans 1,2,3,4,5,6-hexahydro-3-(3-methyl-2-butenyl)-6,11-dimethyl-8-hydroxy-2,6-methano-3-benzazocine]
- pH of a 1 percent aqueous solution [3]: 5.6
- pH at which a precipitate formed [3]: > 6.9
- solubility in water ([3]; water): 5%

Compound: CC(C)=CCN1CC[C@@]2(C)c3cc(O)ccc3C[C@H]1C2C (relative stereo) [4E (dextro), trans 1,2,3,4,5,6-hexahydro-3-(3-methyl-2-butenyl)-6,11-dimethyl-8-hydroxy-2,6-methano-3-benzazocine]
- dosage of antagonist which reduced the analgesic effect of meperidine by approximately 50 per cent [1]: 13.0 mg/kg

Compound: CC(C)=CCN1CC[C@@]2(C)c3cc(O)ccc3C[C@H]1C2C (relative stereo) [4E (levo) hydrochloride, trans 1,2,3,4,5,6-hexahydro-3-(3-methyl-2-butenyl)-6,11-dimethyl-8-hydroxy-2,6-methano-3-benzazocine]
- pH of a 1 percent aqueous solution [3]: 5.7
- pH at which a precipitate formed [3]: 7.0
- solubility in water ([3]; water): 5%

Compound: CC(C)=CCN1CC[C@@]2(C)c3cc(O)ccc3C[C@H]1C2C (relative stereo) [4E (levo), trans 1,2,3,4,5,6-hexahydro-3-(3-methyl-2-butenyl)-6,11-dimethyl-8-hydroxy-2,6-methano-3-benzazocine]
- dosage of antagonist which reduced the analgesic effect of meperidine by approximately 50 per cent [1]: 0.55 mg/kg

Compound: CC(C)=CCN1CC[C@@]2(C)c3cc(O)ccc3C[C@@H]1[C@H]2C (relative stereo) [4E (racemic) hydrobromide, trans 1,2,3,4,5,6-hexahydro-3-(3-methyl-2-butenyl)-6,11-dimethyl-8-hydroxy-2,6-methano-3-benzazocine]
- solubility [3, 5]: 10000 µg/mL
- solubility [3, 6]: < 2500 µg/mL

Compound: CC(C)=CCN1CC[C@@]2(C)c3cc(O)ccc3C[C@@H]1[C@H]2C (relative stereo) [4E (racemic), trans 1,2,3,4,5,6-hexahydro-3-(3-methyl-2-butenyl)-6,11-dimethyl-8-hydroxy-2,6-methano-3-benzazocine]
- ED50 ([1]; sc): 3.3 mg/kg

Compound: C=C(C)CN1CC[C@@]2(C)c3cc(O)ccc3C[C@@H]1[C@@H]2C (relative stereo) [8A hydrochloride, 1,2,3,4,5,6-Hexahydro-3-(2-methyl-2-propenyl)-6,11-dimethyl-8-hydroxy-2,6-methano-3-benzazocine]
- solubility [3, 5]: < 10000 µg/mL
- solubility [3, 6]: < 2500 µg/mL

Compound: C=CCN1CC[C@@]2(CC)c3cc(O)ccc3C[C@@H]1[C@@H]2C (relative stereo) [Example 1A, racemic cis 1,2,3,4,5,6-hexahydro-3-allyl-6-ethyl-11-methyl-8-hydroxy-2,6-methano-3-benzazocine]
- ED50 [2]: 0.044 mg/kg
- dose approximately equivalent to 10 mg. of morphine sulfate as an analgesic [4]: ~5 mg
- analgesia in human subjects ([4]; 5 mg./kg. and 10 mg./kg.): effective and satisfactory analgesia
- ED50 ([1]; sc): 0.049 mg/kg

Compound: C=CCN1CC[C@@]2(CC)c3cc(OC(C)=O)ccc3C[C@@H]1[C@@H]2C (relative stereo) [Example 1B, racemic cis 1,2,3,4,5,6-hexahydro-3-allyl-6-ethyl-11-methyl-8-acetoxy-2,6-methano-3-benzazocine]
- ED50 ([1]; sc): 0.027 mg/kg

Compound: CC[C@]12CCN(CC=C(C)C)[C@H](Cc3ccc(O)cc31)[C@@H]2C (relative stereo) [Example 7A, racemic cis 1,2,3,4,5,6-hexahydro-3-(3-methyl-2-butenyl)-6-ethyl-11-methyl-8-hydroxy-2,6-methano-3-benzazocine]
- ED50 [2]: 11.6 mg/kg
- dose approximately equivalent to 10 mg. of morphine sulfate as an analgesic [4]: ~40 mg
- analgesia in human subjects ([4]; 10 mg./70 kg. to 80 mg./70 kg.): effective and satisfactory analgesia
- solubility ([3]; dilute hydrochloric acid, mixture of 0.34 ml. of N/2 hydrochloric acid and 19.66 ml. of water, read-out: solubility in dilute hydrochloric acid): < 2500 µg/mL
- solubility [3, 5]: < 10000 µg/mL
- ED50 ([1]; sc): 10.9 mg/kg

Compound: C=C(C)CN1CC[C@@]2(C)c3cc(O)ccc3C[C@@H]1[C@@H]2C (relative stereo) [Example 8A, 1,2,3,4,5,6-Hexahydro-3-(2-methyl-2-propenyl)-6,11-dimethyl-8-hydroxy-2,6-methano-3-benzazocine]
- ED50 [2]: 0.19 mg/kg
- ED50 ([1]; sc): 0.094 mg/kg

Compound: CCC12CCN(CC=C(C)C)C(Cc3ccc(O)cc31)C2C (stereo not drawn) [7D (dextro cis), dextro cis 1,2,3,4,5,6-hexahydro-(3-methyl-2-butenyl)-6-ethyl-11-methyl-8-hydroxy-2,6-methano-3-benzazocine]
- dosage of antagonist which reduced the analgesic effect of meperidine by approximately 50 per cent [1]: 19.5 mg/kg

Compound: CCC12CCN(CC=C(C)C)C(Cc3ccc(O)cc31)C2C (stereo not drawn) [7D (levo cis), levo cis 1,2,3,4,5,6-hexahydro-(3-methyl-2-butenyl)-6-ethyl-11-methyl-8-hydroxy-2,6-methano-3-benzazocine]
- dosage of antagonist which reduced the analgesic effect of meperidine by approximately 50 per cent [1]: 3.1 mg/kg

Compound: racemic cis 1,2,3,4,5,6-hexahydro-3-(3-methyl-2-butenyl)-6-ethyl-11-methyl-8-cyclopropanecarbonyloxy-2,6-methano-3-benzazocine hydrochloride [Example 7C]
- dosage of antagonist which reduced the analgesic effect of meperidine by approximately 50 per cent [1]: 0.0022 mg/kg
